Laboratory results as given in patent publication US9955689B2, “Method for promoting plant growth” (SUMITOMO CHEMICAL COMPANY, LIMITED, priority 2012, dated 2018).

Columns and labels:
[1] = tested on: Corn (Variety: Pioneer 31P41); experiment: Test Example 8: growth promotion under low-temperature stress by corn seed treatment; format: in vivo; details: corn seed treatment: compound 21 0.5 g, compound 55 0.5 g, 5 g or 50 g per 100 kg corn seeds; 4 days at 2.5±1° C., then 4 days at 27° C.
Experimental: Test Example 8. Test for Evaluating Growth Promotion Under Low-Temperature Stress by Corn Seed Treatment
Corn (Variety: Pioneer 31P41 (Manufactured by Pioneer Hi-Bred Japan)
A blank slurry solution containing 10% (V/V) color coat red (Becker Underwood, Inc.), 10% (V/V) CF-Clear (Becker Underwood, Inc.), and 1.66% Maxim4FS (Syngenta) was prepared. The compound 21 of the present invention was dissolved in the blank slurry such that 0.5 g of the compound was used for treatment per 100 kg corn seeds, and the compound 55 of the present invention was dissolved in the blank slurry such that 0.5 g, 5 g or 50 g of the compound was used for treatment per 100 kg corn seeds respectively, thereby preparing a slurry solution.
Zero point three five (0.35) ml of the slurry solution per 14.4 g of the seeds was put into a 50 ml centrifugal settling tube (manufactured by Becton, Dickinson and Company, Japan), and the slurry solution was stirred until it dries, thereby coating the seeds. Moreover, the seeds coated with the blank slurry were used as seeds for an untreated control plot. […]
After low-temperature stress treatment was performed, the seeds were cultured for 4 days at 27° C., under the conditions of an illuminance of 5,000 lux, and a day length of 16 hours. Thereafter, a fresh weight of the aerial part in plant was measured, and an average weight of each individual was determined. […]

Nicotiana benthamiana = experiment: Test Example 5: growth promotion under low-temperature stress by hydroponics of Nicotiana benthamiana (1 ppm); format: in vivo; details: compound at 1 ppm, 7 days at 1.5±1.0° C. low-temperature stress, then 3 days at 22° C., 5 or greater = growth promotion effect, read-out: value of a relative leaf area (Equation (1), area of green leaf)
Experimental: Test Example 5. Test for Evaluating Growth Promotion Under Low-Temperature Stress by Hydroponics of Nicotiana benthamiana
(Cultivation and Compound Treatment)
A DMSO solution, which contained one of the compounds 9, 10, 15, 16, 27 to 29, 31 to 37, 40, 44, 47, 48, 52, 55, 56, 58, 61, 63, 81, 87, 89, 92, 95, 98, 100, 102, 105, 108, 109, 111, 113, and 115 of the present invention at a concentration of 1,000 ppm, was prepared. The DMSO solution of the compound of the present invention was added at a volume ratio of 1/1,000 to the Murashige-Scoog medium of a ½-fold concentration (a medium containing 2.3 g of mixed salts (manufactured by Wako Pure Chemical Industries, Ltd.), 200 mg of Myo-inositol (manufactured by Sigme-Aldrich Co. LLC.), 2 mg of niconitic acid (manufactured by Wako Pure Chemical. Industries, Ltd.), 2 mg of pyridoxine hydrochloride (manufactured by Wako Pure Chemical Industries, Ltd.), 20 mg of thiamine hydrochloride (manufactured by Wako Pure Chemical Industries, Ltd.), 20 g of sucrose (manufactured by Wako Pure Chemical Industries, Ltd.), and 1 g of MES (manufactured by DOJINDO LABORATORIES) respectively per 1 L of water and having pH adjusted to 5.8), thereby preparing a medium containing the compound of the present invention at a concentration of 1 ppm.
Seeds of Nicotiana benthamiana were seeded in the 5 μL of the medium and cultured overnight at 22° C. Thereafter, 45 μL of the medium containing the compound of the present invention at a concentration of 1 ppm was added thereto, and the seeds are cultured for 7 days at 22° C. under the conditions of an illuminance of 4,000 lux, and a day length of 16 hours, and the seedlings raised from the Nicotiana benthamiana were treated with the compound. Moreover, instead of the above medium a test plot, which was obtained by performing the same treatment by using a medium prepared by adding DMSO to the Murashige⋅Scoog medium of ½-fold concentration at a volume ratio of 1/1,000, was used as a control plot not treated with the compound.
(Low-Temperature Stress Treatment)
The seedlings of the Nicotiana benthamiana treated with the compound were subjected to low-temperature treatment by being cultured for 7 days at 1.5±1.0° C., under the conditions of an illuminance of 2,000 lux, and a day length of 16 hours.
The seedlings of the Nicotiana benthamiana having undergone the low-temperature stress treatment were cultured for 3 days at 22° C. under the conditions of an illuminance of 4,000 lux, and a day length of 16 hours. Thereafter, the area of green leaf was quantified by Scanalyzer HTS (manufactured by LemnaTec GmbH). Moreover, the value of the control plot not treated with the compound that had not yet been subjected to the low-temperature stress treatment was measured in the same manner. A value of a relative leaf area was calculated based on the following equation (1), and if the relative value of leaf area was 5 or greater, the compound was evaluated to have a growth promotion effect. As a result of the evaluation, it was confirmed that when the plant was treated with one of the compounds 9, 10, 15, 16, 27 to 29, 31 to 37, 40, 44, 47, 48, 52, 55, 56, 58, 61, 63, 81, 87, 89, 92, 95, 98, 100, 102, 105, 108, 109, 111, 113, and 115 of the present invention at 1 ppm, the value of a relative leaf area was 5 or greater, compared to the area of green leaf of the control plot not treated with compound. Accordingly, it was confirmed that the treatment using the compound of the present invention improve a growth promotion effect. Relative leaf area=100*(a green area of a plot treated with the compound of the present invention minus(−) a green area of a plot not treated with the compound of the present invention)/(a green area of a control plot not treated with the compound of the present invention that had not yet been subjected to low-temperature stress treatment minus(−) a green area of a control plot not treated with the compound of the present invention) Equation (1): […]

O=C(O)c1sc2ccccc2c1C(=O)O [Present compound 55, benzo[b]thiophene-2,3-dicarboxylic acid]
fresh weight of the aerial part compared with the untreated control plot [1]: larger
relative leaf area at 1 ppm (Nicotiana benthamiana): ≥ 5%
